Source: ChEMBL document CHEMBL1201862, “PubChem BioAssay data set” (2004)
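Briefly, cells in 96-well plates were exposed to five compound concentrations for 48 h, and endpoints were estimated by linear interpolation. Here, GI50 denotes the concentration required for 50% inhibition of growth.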 Activity calls are given as the source filed them. Cut-off read from the data, not from the text of the source: active = GI50 up to about 1.1 µM and inactive = higher.

Columns and labels:
Experiment in all cases: NCI anticancer screen, dose series, 48 h
NCI-H522 = test system: NCI-H522
SR = test system: SR
COLO 205 = test system: COLO 205
NCI-H226 = test system: NCI-H226
SN12C = test system: SN12C
NCI-H23 = test system: NCI-H23
M14 = test system: M14
OVCAR-8 = test system: OVCAR-8
NCI-H460 = test system: NCI-H460
MCF7 = test system: MCF7
HCT-15 = test system: HCT-15
ACHN = test system: ACHN
U-251 = test system: U-251
A498 = test system: A498
IGROV-1 = test system: IGROV-1
UACC-62 = test system: UACC-62
HOP-92 = test system: HOP-92
SNB-19 = test system: SNB-19
SF-295 = test system: SF-295
TK-10 = test system: TK-10

SMILES	GI50 (NCI-H522)	GI50 (SR)	GI50 (COLO 205)	GI50 (NCI-H226)	GI50 (SN12C)	GI50 (NCI-H23)	GI50 (M14)	GI50 (OVCAR-8)	GI50 (NCI-H460)	GI50 (MCF7)	GI50 (HCT-15) [µM]	GI50 (ACHN)	GI50 (U-251)	GI50 (A498)	GI50 (IGROV-1)	GI50 (UACC-62)	GI50 (HOP-92)	GI50 (SNB-19)	GI50 (SF-295)	GI50 (TK-10)
COC(=O)/C=C/c1cc(O)c2c(c1)[C@H](C(=O)OC)[C@@H](c1ccc(O)c(O)c1)O2	0.0706 µM (active)	0.0316 µM (active)	11.5 µM (inactive)	2.48 µM (inactive)	0.18 µM (active)	0.342 µM (active)	0.0386 µM (active)	0.169 µM (active)	2.56 µM (inactive)	0.108 µM (active)	0.0451	0.08 µM (active)	0.0664 µM (active)	6.82 µM (inactive)	0.221 µM (active)	0.0865 µM (active)	9.89 µM (inactive)	0.0386 µM (active)	0.476 µM (active)	24.7 µM (inactive)
COc1cccc(Nc2nc(-c3cccs3)nc3cc(OC)c(OC)cc23)c1	18.9 µM (inactive)	11 µM (inactive)	23.2 µM (inactive)	37.6 µM (inactive)	21.3 µM (inactive)	32.4 µM (inactive)	35.2 µM (inactive)	23.9 µM (inactive)	28.8 µM (inactive)	24.5 µM (inactive)	26.6	21.6 µM (inactive)	23.8 µM (inactive)	18.9 µM (inactive)	21.6 µM (inactive)	19.1 µM (inactive)	25 µM (inactive)	28.4 µM (inactive)	23.4 µM (inactive)	33.4 µM (inactive)
Cc1ccc2nc3ccccc3c(C3C4C(=O)N(c5ccc(Br)cc5Cl)C(=O)C4ON3C(C(N)=O)c3ccccc3)c2c1 (stereo not given)	13.6 µM (inactive)	7.26 µM (inactive)	> 25 µM (inactive)	17.2 µM (inactive)	5.47 µM (inactive)	0.321 µM (active)	11.6 µM (inactive)	> 25 µM (inactive)	> 25 µM (inactive)	11.6 µM (inactive)	5.77	6.73 µM (inactive)	> 25 µM (inactive)	> 25 µM (inactive)	16.7 µM (inactive)	7.93 µM (inactive)	> 25 µM (inactive)	> 25 µM (inactive)	> 25 µM (inactive)	> 25 µM (inactive)
CC(=O)OC1CC2(C)C(=CC1C1SCCS1)CCC1C2CCC2(C)C(OC(C)=O)CCC12 (stereo not given)	37 µM (inactive)	> 100 µM (inactive)	> 100 µM (inactive)	> 100 µM (inactive)	> 100 µM (inactive)	> 100 µM (inactive)	> 100 µM (inactive)	> 100 µM (inactive)	> 100 µM (inactive)	68.4 µM (inactive)	> 100	> 100 µM (inactive)	32.3 µM (inactive)	70 µM (inactive)	> 100 µM (inactive)	> 100 µM (inactive)	66.4 µM (inactive)	37.1 µM (inactive)	23.4 µM (inactive)	64.1 µM (inactive)
Nc1ccc(Oc2ccc(C34CC5CC6C3CC3CC4C(C5)C6(c4ccc(Oc5ccc(N)cc5)cc4)C3)cc2)cc1	12.8 µM (inactive)	21.9 µM (inactive)	< 0.01 µM (active)	22.8 µM (inactive)	25.1 µM (inactive)	26.4 µM (inactive)	0.583 µM (active)	31.9 µM (inactive)	21.4 µM (inactive)	36.2 µM (inactive)	21.8	3.17 µM (inactive)	2.9 µM (inactive)	22.2 µM (inactive)	23.8 µM (inactive)	2.74 µM (inactive)	2.9 µM (inactive)	9.53 µM (inactive)	23.8 µM (inactive)	21.6 µM (inactive)
C/C(=C\COP(=O)(O)OP(=O)(O)O)CCCCCCOCc1ccccc1	> 100 µM (inactive)	> 100 µM (inactive)	> 100 µM (inactive)	> 100 µM (inactive)	> 100 µM (inactive)	> 100 µM (inactive)	> 100 µM (inactive)	> 100 µM (inactive)	> 100 µM (inactive)	> 100 µM (inactive)	> 100	> 100 µM (inactive)	> 100 µM (inactive)	> 100 µM (inactive)	> 100 µM (inactive)	> 100 µM (inactive)	> 100 µM (inactive)	> 100 µM (inactive)	> 100 µM (inactive)	> 100 µM (inactive)
CCOC(=O)[C@@H]1CCN2CN(c3ccc(OC)cc3)N=C(c3ccccc3)[C@@]12c1ccccc1	17.5 µM (inactive)	23.7 µM (inactive)	21.4 µM (inactive)	14.7 µM (inactive)	16 µM (inactive)	24.1 µM (inactive)	20 µM (inactive)	22.7 µM (inactive)	27.8 µM (inactive)	20.7 µM (inactive)	23.9	24.8 µM (inactive)	28.9 µM (inactive)	21.6 µM (inactive)	21.3 µM (inactive)	15.5 µM (inactive)	12.6 µM (inactive)	37 µM (inactive)	25.8 µM (inactive)	29.3 µM (inactive)
